# Target: T1, human GPBAR1 receptor (Homo sapiens, UniProt Q8TDU6)
# T1 construct: expressed in transfected cells
# T1 sequence (Q8TDU6 1-330): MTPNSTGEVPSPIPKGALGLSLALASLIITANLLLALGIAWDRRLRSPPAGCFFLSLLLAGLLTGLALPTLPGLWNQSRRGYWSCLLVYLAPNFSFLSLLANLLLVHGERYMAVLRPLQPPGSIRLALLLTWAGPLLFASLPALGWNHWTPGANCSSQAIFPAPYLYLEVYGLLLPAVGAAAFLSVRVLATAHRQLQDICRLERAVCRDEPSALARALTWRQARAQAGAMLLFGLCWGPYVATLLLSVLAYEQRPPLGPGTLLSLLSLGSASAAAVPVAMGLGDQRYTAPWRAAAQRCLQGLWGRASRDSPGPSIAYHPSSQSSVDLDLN
# Assay: functional cAMP assay in CHO-dhfr(minus) cells expressing human GPBAR1 receptors
# Type: cell-based
# Conditions: human EC50, functional cAMP assay, 30 min at 30° C.
# Method in brief: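 Agonist cAMP read-out: stable GPBAR1 CHO-dhfr− clone, 30 min compound exposure at 30° C following 30 min IBMX (1 mM) preincubation in Krebs Ringer bicarbonate. Time-resolved energy-transfer detection gives EC50; parental CHO cells serve as counter-screen.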
row,SMILES,EC50 [µM]
1,"Cc1cc(/C(CC(c2ccc(-c3ccc(C(=O)O)cc3C)cc2)c2ccc(Cl)cc2F)=N/O)ccn1 (stereo not shown) [Example 456, 4′-[1-(4-Chloro-2-fluoro-phenyl)-3-[(E)-hydroxyimino]-3-(2-methyl-pyridin-4-yl)-propyl]-2-methyl-biphenyl-4-carboxylic acid]",0.016
2,"CC(=O)N1CCC(c2ccc([C@@H](C/C(=N\O)c3ccnc(C)c3)c3ccc(Cl)cc3C)cc2)CC1 [Example 511, (R,E)-1-(4-(4-(1-(4-Chloro-2-methylphenyl)-3-(hydroxyimino)-3-(2-methylpyridin-4-yl)propyl)phenyl)piperidin-1-yl)ethanone]",0.036
3,"Cc1cc(/C(C[C@H](c2ccc(NCC(CCl)C(=O)O)cc2)c2ccccc2C)=N/O)ccn1 (stereo partly drawn) [Example 280, 2-Chloromethyl-3-{4-[(R)-3-[(E)-hydroxyimino]-3-(2-methyl-pyridin-4-yl)-1-o-tolyl-propyl]-phenylamino}-propionic acid]",0.019
4,"Cc1cc(/C(C[C@H](c2ccc(C3CCC(C(=O)O)CC3)cc2)c2ccccc2C)=N/O)ccn1 (stereo partly drawn) [Example 490, (R,E)-4-(4-(3-(Hydroxyimino)-3-(2-methylpyridin-4-yl)-1-o-tolylpropyl)phenyl)-cyclohexanecarboxylic acid]",0.024
5,"Cc1cc(C(CC(c2cccc(C#CCO)c2)c2ccccc2C)=NO)ccn1 (racemic) [Example 106, 3-[3-(3-Hydroxy-prop-1-ynyl)-phenyl]-1-(2-methyl-pyridin-4-yl)-3-o-tolyl-propan-1-one oxime]",0.255
6,"Cc1cc(C)cc(C(CC(=NO)c2ccncc2)c2ccc(N(C)C)cc2)c1 (racemic) [Example 18, 3-(4-Dimethylamino-phenyl)-3-(3,5-dimethyl-phenyl)-1-pyridin-4-yl-propan-1-one oxime]",0.661
7,"Cc1cc(/C(C[C@H](c2ccc(-c3cncnc3)cc2)c2ccccc2C)=N/O)ccn1 [Example 143, (E,R)-1-(2-Methyl-pyridin-4-yl)-3-(4-pyrimidin-5-yl-phenyl)-3-o-tolyl-propan-1-one oxime]",0.001
8,"Cc1ccccc1[C@@H](C/C(=N\O)c1cnc(=O)n(C)c1)c1ccc(Br)cc1 [Example 501, (S,E)-5-(3-(4-Bromophenyl)-1-(hydroxyimino)-3-o-tolylpropyl)-1-methylpyrimidin-2(1H)-one]",0.225

# Continued, values first:
row,EC50 [µM],SMILES
1,0.018,"Cc1cc(Cl)ccc1[C@@H](C/C(=N\O)c1ccc(=O)n(C)c1)c1ccc(-c2ccc(S(N)(=O)=O)cc2)cc1 (single isomer, unassigned) [Example 414, (+)-4′-[1-(4-Chloro-2-methyl-phenyl)-3-[(E)-hydroxyimino]-3-(1-methyl-6-oxo-1,6-dihydro-pyridin-3-yl)-propyl]-biphenyl-4-sulfonic acid amide]"
2,0.055,"Cc1cc(Cl)ccc1C(C/C(=N\O)c1ccc(=O)n(C)c1)c1ccc(-c2ccc(C(=O)O)cc2)cc1 (stereo not shown) [Example 227, (E)-4′-(1-(4-Chloro-2-methylphenyl)-3-(hydroxyimino)-3-(1-methyl-6-oxo-1,6-dihydropyridin-3-yl)propyl)biphenyl-4-carboxylic acid]"
3,0.186,"Cc1cc(Cl)ccc1C(C/C(=N\O)c1ccc(=O)n(CCC(N)=O)c1)c1ccc(S(C)(=O)=O)cc1 (stereo not shown) [Example 344, (E)-3-(5-(3-(4-Chloro-2-methylphenyl)-1-(hydroxyimino)-3-(4-(methylsulfonyl)phenyl)-propyl)-2-oxopyridin-1(2H)-yl)propanamide]"
4,0.255,"Cc1ccccc1C(CC(=NO)c1ccncc1)c1ccc(-c2cccc(S(C)(=O)=O)c2)cc1 (racemic) [Example 32, 3-(3′-Methanesulfonyl-biphenyl-4-yl)-1-pyridin-4-yl-3-o-tolyl-propan-1-one oxime]"
5,0.073,"Cc1cc(Cl)ccc1C(C/C(=N\O)c1ccc(=O)n(C)c1)c1ccc(S(C)(=O)=O)cc1 (single isomer, unassigned; (-)) [Example 333, (−)-(E)-5-(3-(4-Chloro-2-methylphenyl)-1-(hydroxyimino)-3-(4-(methylsulfonyl)phenyl)-propyl)-1-methylpyridin-2(1H)-one]"

# Reference: US8765730B2 (Hoffmann-La Roche Inc, priority 2010, dated 2014)
